Reference: US10208081B2, “Bile acid derivatives as FXR/TGR5 agonists and methods of use thereof” (Enanta Pharmaceuticals, Inc., priority 2014, dated 2019)

Molecular target: human FXR (NR1H4) (Homo sapiens (Human), UniProt Q96RI1)
Assay: Human FXR (NR1H4) Assay (Gal4 promoter driven luciferase reporter, Indigo Bioscience kit IB00601)
Format: cell-based
Conditions: for Efficacy (%): efficacy normalized to CDCA set as 100%; for EC50: potency ranges
Description: Assays Human FXR (NR1H4) Assay
Determination of a ligand mediated Gal4 promoter driven transactivation quantify ligand binding mediated activation of FXR. FXR Reporter Assay kit purchased from Indigo Bioscience (Catalogue number: IB00601) to determine the potency and efficacy of compound developed by Enanta that can induce FXR activation. The principle application of this reporter assay system is to quantify functional activity of human FXR. The assay utilizes non-human mammalian cells, CHO (Chinese hamster ovary) cells engineered to express human NR1H4 protein (referred to as FXR). Reporter cells also incorporate the cDNA encoding beetle luciferase which catalyzes the substrates and yields photon emission. Luminescence intensity of the reaction is quantified using a plate-reading luminometer, Envision. Reporter Cells include the luciferase reporter gene functionally linked to an FXR responsive promoter. Thus, quantifying changes in luciferase expression in the treated reporter cells provides a sensitive surrogate measure of the changes in FXR activity. […] The assay is according to the manufacturer's instructions. In brief, the assay was performed in white, 96 well plates using final volume of 100 ul containing cells with different doses of compounds. Retrieve Reporter Cells from −80° C. storage. Perform a rapid thaw of the frozen cells by transferring a 10 ml volume of 37° C. cell recovery medium into the tube of frozen cells. Recap the tube of Reporter Cells and immediately place it in a 37° C. water bath for 5-10 minutes. Retrieve the tube of Reporter Cell Suspension from the water bath. Sanitize the outside surface of the tube with a 70% alcohol swab, and then transfer it into the cell culture hood. Dispense 90 μl of cell suspension into each well of the 96-well Assay Plate. Transfer the plate into 37° C. incubator, allowing the cells adherent to the bottom of the well. Dilute compounds in Dilution Plate (DP), and administrate to cells at Assay Plate (AP). DMSO content of the samples was kept at 0.2%. Cells were incubated for additional 22 hours before luciferase activities were measured. Thirty minutes before intending to quantify FXR activity, remove Detection Substrate and Detection Buffer from the refrigerator and place them in a low-light area so that they may equilibrate to room temperature. Remove the plate's lid and discard all media contents by ejecting it into an appropriate waste container. Gently tap the inverted plate onto a clean absorbent paper towel to remove residual droplets. Cells will remain tightly adhered to well bottoms. Add 100 μl of luciferase detection reagent to each well of the assay plate. Allow the assay plate to rest at room temperature for at least 5 minutes following the addition of LDR. Set the instrument (Envision) to perform a single 5 second “plate shake” prior to reading the first assay well. Read time may be 0.5 second (500 mSec) per well.

Chain of human FXR (NR1H4) (Q96RI1 whole entry, the tested form may be a part): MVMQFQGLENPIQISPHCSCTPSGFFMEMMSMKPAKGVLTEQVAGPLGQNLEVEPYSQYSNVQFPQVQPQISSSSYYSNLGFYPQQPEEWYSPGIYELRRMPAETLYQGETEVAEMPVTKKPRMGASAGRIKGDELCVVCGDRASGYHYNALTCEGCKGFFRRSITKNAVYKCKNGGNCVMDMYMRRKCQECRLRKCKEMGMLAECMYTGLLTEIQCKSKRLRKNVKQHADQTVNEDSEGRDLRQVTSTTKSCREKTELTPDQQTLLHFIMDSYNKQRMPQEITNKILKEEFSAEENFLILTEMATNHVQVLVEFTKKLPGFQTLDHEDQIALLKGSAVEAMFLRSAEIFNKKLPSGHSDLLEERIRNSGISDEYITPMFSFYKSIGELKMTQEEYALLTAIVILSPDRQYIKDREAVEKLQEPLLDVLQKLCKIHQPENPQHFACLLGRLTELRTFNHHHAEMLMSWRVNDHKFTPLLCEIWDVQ

Compound | Efficacy (%) | EC50 [µM]
CC[C@H]1[C@@H](O)[C@@H]2[C@H](CC[C@]3(C)[C@@H]([C@H](C)CCNC(=O)NS(=O)(=O)N4CC(F)(F)C(F)(F)C4)CC[C@@H]23)[C@@]2(C)CC[C@@H](O)C[C@@H]12 [Example 81] | 315 | < 0.1
CC[C@H]1[C@@H](O)[C@@H]2[C@H](CC[C@]3(C)[C@@H]([C@H](C)CCNC(=O)NS(=O)(=O)c4ccc(C(C)(C)C)s4)CC[C@@H]23)[C@@]2(C)CC[C@@H](O)C[C@@H]12 [Example 111] | 314 | < 0.1
C[C@H](CCNC(=O)NS(=O)(=O)c1ccc(C(C)(C)C)cc1)[C@H]1CC[C@H]2[C@@H]3[C@H](O)C[C@@H]4C[C@H](O)CC[C@]4(C)[C@H]3CC[C@]12C [Example 110] | 320 | 1 to 10
CC[C@H]1[C@@H](O)[C@@H]2[C@H](CC[C@]3(C)[C@@H]([C@H](C)CCNC(=O)NS(=O)(=O)N4CCC5(CC4)CC5)CC[C@@H]23)[C@@]2(C)CC[C@@H](O)C[C@@H]12 [Example 86] | 390 | < 0.1
CC[C@H]1[C@@H](O)[C@@H]2[C@H](CC[C@]3(C)[C@@H]([C@H](C)CCNC(=O)NS(=O)(=O)C4CCCC4)CC[C@@H]23)[C@@]2(C)CC[C@@H](O)C[C@@H]12 [Example 27] | 275 | < 0.1
CC[C@H]1[C@@H](O)[C@@H]2[C@H](CC[C@]3(C)[C@@H]([C@H](C)CNS(=O)(=O)c4cccc(N5CCCCC5)c4)CC[C@@H]23)[C@@]2(C)CC[C@@H](O)C[C@@H]12 [Example 142] | 7 | 
CC[C@H]1[C@@H](O)[C@@H]2[C@H](CC[C@]3(C)[C@@H]([C@H](C)CCNC(=O)NS(=O)(=O)c4ccc(C(=O)OC)cc4)CC[C@@H]23)[C@@]2(C)CC[C@@H](O)C[C@@H]12 [Example 123] | 271 | 0.1 to 1
CC[C@H]1[C@@H](O)[C@@H]2[C@H](CC[C@]3(C)[C@@H]([C@H](C)CCNC(=O)NS(=O)(=O)N4C(C)CCC4C)CC[C@@H]23)[C@@]2(C)CC[C@@H](O)C[C@@H]12 (some centres unmarked) [Example 98] | 344 | < 0.1
CC[C@H]1[C@@H](O)[C@@H]2[C@H](CC[C@]3(C)[C@@H]([C@H](C)CCNC(=O)NS(=O)(=O)c4ccc(N(C)C)cc4)CC[C@@H]23)[C@@]2(C)CC[C@@H](O)C[C@@H]12 [Example 119] | 363 | < 0.1
CC[C@H]1[C@@H](O)[C@@H]2[C@H](CC[C@]3(C)[C@@H]([C@H](C)CCNC(=O)NS(=O)(=O)c4ccc(C5(C(F)(F)F)CC5)cc4)CC[C@@H]23)[C@@]2(C)CC[C@@H](O)C[C@@H]12 [Example 106] | 281 | < 0.1
CC[C@H]1[C@@H](O)[C@@H]2[C@H](CC[C@]3(C)C([C@H](C)CCNS(=O)(=O)c4ccccc4)CC[C@@H]23)[C@@]2(C)CC[C@@H](O)C[C@@H]12 (some centres unmarked) [Example 130] | 146 | 1 to 10
CC[C@H]1[C@@H](O)[C@@H]2[C@H](CC[C@]3(C)[C@@H]([C@H](C)CCNC(=O)NS(=O)(=O)c4ccc5c(c4)CCN5C(C)=O)CC[C@@H]23)[C@@]2(C)CC[C@@H](O)C[C@@H]12 [Example 62] | 476 | 1 to 10
CC[C@H]1[C@@H](O)[C@@H]2[C@H](CC[C@]3(C)[C@@H]([C@H](C)CCNC(=O)NS(=O)(=O)c4cccc(OC(F)(F)F)c4)CC[C@@H]23)[C@@]2(C)CC[C@@H](O)C[C@@H]12 [Example 50] | 309 | < 0.1
CC[C@H]1[C@@H](O)[C@@H]2[C@H](CC[C@]3(C)[C@@H]([C@H](C)CCCNC(=O)NS(=O)(=O)c4ccc(OC(F)(F)F)cc4)CC[C@@H]23)[C@@]2(C)CC[C@@H](O)C[C@@H]12 [Example 18] | 319 | < 0.1
CC[C@H]1[C@@H](O)[C@@H]2[C@H](CC[C@]3(C)[C@@H]([C@H](C)CCNC(=O)NS(=O)(=O)c4ccc(-c5csc(C)n5)cc4)CC[C@@H]23)[C@@]2(C)CC[C@@H](O)C[C@@H]12 [Example 71] | 419 | 0.1 to 1
CC[C@H]1[C@@H](O)[C@@H]2[C@H](CC[C@]3(C)[C@@H]([C@H](C)CCNC(=O)NS(=O)(=O)c4ccc(C(F)(F)F)cc4)CC[C@@H]23)[C@@]2(C)CC[C@@H](O)C[C@@H]12 [Example 14] | 295 | 0.1 to 1
CC[C@H]1[C@@H](O)[C@@H]2[C@H](CC[C@]3(C)[C@@H]([C@H](C)CCNC(=O)N(C)S(=O)(=O)c4ccccc4)CC[C@@H]23)[C@@]2(C)CC[C@@H](O)C[C@@H]12 [Example 56] | 295 | 0.1 to 1
CC[C@H]1[C@@H](O)[C@@H]2[C@H](CC[C@]3(C)[C@@H]([C@H](C)CCNC(=O)NS(=O)(=O)C[C@@]45CCC(CC4=O)C5(C)C)CC[C@@H]23)[C@@]2(C)CC[C@@H](O)C[C@@H]12 [Example 61] | 403 | < 0.1
CC[C@H]1[C@@H](O)[C@@H]2[C@H](CC[C@]3(C)[C@@H]([C@H](C)CCCNS(=O)(=O)[O-])CC[C@@H]23)[C@@]2(C)CC[C@@H](O)C[C@@H]12.[Na+] [Example 135] | 4 | 1 to 10
CC[C@H]1[C@@H](O)[C@@H]2[C@H](CC[C@]3(C)[C@@H]([C@H](C)CCNC(=O)NS(=O)(=O)c4ccc5ccccc5c4)CC[C@@H]23)[C@@]2(C)CC[C@@H](O)C[C@@H]12 [Example 1] | 337 | < 0.1
CC[C@H]1[C@@H](O)[C@@H]2[C@H](CC[C@]3(C)[C@@H]([C@H](C)CCNC(=O)NS(=O)(=O)c4ccncc4)CC[C@@H]23)[C@@]2(C)CC[C@@H](O)C[C@@H]12 [Example 49] | 236 | 1 to 10
CC[C@H]1[C@@H](O)[C@@H]2[C@H](CC[C@]3(C)[C@@H]([C@H](C)CCNC(=O)NS(=O)(=O)N4CCS(=O)(=O)CC4)CC[C@@H]23)[C@@]2(C)CC[C@@H](O)C[C@@H]12 [Example 83] | 348 | 1 to 10
CC[C@H]1[C@@H](O)[C@@H]2[C@H](CC[C@]3(C)[C@@H]([C@H](C)CCNC(=O)NS(=O)(=O)c4ccc(-c5cnc(C)o5)cc4C)CC[C@@H]23)[C@@]2(C)CC[C@@H](O)C[C@@H]12 [Example 79] | 249 | 0.1 to 1
CC[C@H]1[C@@H](O)[C@@H]2[C@H](CC[C@]3(C)[C@@H]([C@H](C)CCNC(=O)NS(=O)(=O)N4CCC(C(C)(C)C)CC4)CC[C@@H]23)[C@@]2(C)CC[C@@H](O)C[C@@H]12 [Example 67] | 351 | < 0.1
CC[C@H]1[C@@H](O)[C@@H]2[C@H](CC[C@]3(C)[C@@H]([C@H](C)CCNC(=O)NS(=O)(=O)c4ccc5c(c4)CCCC5)CC[C@@H]23)[C@@]2(C)CC[C@@H](O)C[C@@H]12 [Example 57] | 297 | < 0.1
CC[C@H]1[C@@H](O)[C@@H]2[C@H](CC[C@]3(C)[C@@H]([C@H](C)CCNC(=O)NS(=O)(=O)c4ccc(C(C)(C)C)cc4)CC[C@@H]23)[C@@]2(C)CC[C@@H](O)C[C@@H]12 [Example 3] | 396 | < 0.1
CC[C@H]1[C@@H](O)[C@@H]2[C@H](CC[C@]3(C)[C@@H]([C@H](C)CCNC(=O)NS(=O)(=O)c4ccc(OC(F)(F)F)cc4)CC[C@@H]23)[C@@]2(C)CC[C@@H](O)C[C@@H]12 [Example 2] | 300 | < 0.1
